Data reported in patent US9856237B2, “Pyrazine derivatives” (TEIJIN PHARMA LIMITED, priority 2014, dated 2018).

Tested on: cebus apella
Assay: Testing drug efficacy in Cebus apella (uric acid excretion rate)
Assay type: in vivo
Conditions: 3 mg/kg to 30 mg/kg in 0.5% methylcellulose, from the nasal cavity to the stomach
Experimental: Testing Drug Efficacy in Cebus Apella A test compound (3 mg/kg to 30 mg/kg) dispersed in a 0.5% methylcellulose solution was administered to cebus apella from the nasal cavity to the stomach using a disposable catheter and a syringe barrel. Blood samples were taken before administration and 30 minutes, 1 hour, 2 hours, 4 hours, 8 hours, 12 hours, and 24 hours after administration; and urine samples were collected for the time intervals of from immediately after to 4 hours after administration, from 4 hours to 8 hours after administration, from 8 hours to 16 hours after administration, and from 16 hours to 24 hours after administration. Concentrations of uric acid and creatinine in the blood and urine samples collected were measured by an automatic analyzer (JEOL Ltd.). Uric acid and creatinine were measured respectively using L-type Wako UA•F (Wako Pure Chemicals Industries, Ltd.) and L-type Creatinine F (Wako Pure Chemicals Industries, Ltd.). Uric acid clearance was calculated from the uric acid concentrations in blood and urine and, similarly, creatinine clearance was calculated from the creatinine concentrations. Based on these values, the uric acid excretion rate was determined according to the following equation: Uric acid excretion rate (%)=(uric acid clearance/creatinine clearance)×100

Compound | activity to promote uric acid excretion
Cc1nc(-c2cnccn2)n(Cc2cc(Cl)sc2Cl)c1C(=O)O [Compound A11, 1-((2,5-dichlorothiophene-3-yl)methyl)-4-methyl-2-(pyrazin-2-yl)-1H-imidazole-5-carboxylic acid] | excellent activity

Target: T1, human URAT1 (Homo sapiens, UniProt Q96S37)
T1 construct: Full-length cDNA of human URAT1 (hURAT1); host or cells: HEK 293 cells, stably transfected and selected by Geneticin resistance
T1 sequence (Q96S37 1-553): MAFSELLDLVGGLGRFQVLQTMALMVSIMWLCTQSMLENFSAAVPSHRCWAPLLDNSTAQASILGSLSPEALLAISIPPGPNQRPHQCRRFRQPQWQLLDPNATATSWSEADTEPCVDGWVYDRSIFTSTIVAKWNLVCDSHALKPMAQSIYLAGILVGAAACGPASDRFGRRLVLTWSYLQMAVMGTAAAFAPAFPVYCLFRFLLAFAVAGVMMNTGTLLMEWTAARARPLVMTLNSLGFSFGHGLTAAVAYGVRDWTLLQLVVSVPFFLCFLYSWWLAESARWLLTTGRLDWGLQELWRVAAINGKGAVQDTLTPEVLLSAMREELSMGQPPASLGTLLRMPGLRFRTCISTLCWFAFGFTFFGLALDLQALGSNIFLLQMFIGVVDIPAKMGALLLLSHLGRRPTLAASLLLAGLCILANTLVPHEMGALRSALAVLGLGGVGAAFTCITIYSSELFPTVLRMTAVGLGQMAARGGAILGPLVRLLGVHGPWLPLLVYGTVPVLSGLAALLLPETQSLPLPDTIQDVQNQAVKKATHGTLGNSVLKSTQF
Assay: Test for inhibition of uric acid transport using human URAT1-expressing cells
Assay type: cell-based
Conditions: HEK 293 cells expressing human URAT1; 14C-labeled uric acid 25 μM; uptake 37° C. for 5 min; read-out: Inhibitory activity (IC50, concentration at which the uric acid transport rate is inhibited by 50%)
Experimental: Test for Inhibition of Uric Acid Transport Using Human URAT1-Expressing Cells
A test compound was dissolved in DMSO (produced by Sigma) to a concentration of 20 mM and was subsequently used by adjusting the concentration to a desired value for use.
Full-length cDNA of human URAT1 (hURAT1) (produced by OriGene Technologies, Inc., NCBI Reference Sequence: NM-144585) was subcloned into an expression vector, pCMV6-Kan/Neo (produced by OriGene Technologies, Inc.), and human URAT1 genes were transfected into human embryonic kidney-derived cells (HEK 293 cells) by a liposome method using Lipofectamine 2000 (produced by Invitrogen Corporation), whereupon HEK 293 cells expressing human URAT1 genes were selected on the basis of Geneticin resistance. Functional expression of human URAT1 genes was confirmed by using transport of ^14C-labeled uric acid into the cells as an index.
The HEK 293 cells expressing human URAT1 were seeded in a 24-well cell culture dish to a density of 3×10^5 cells/mL/well and were cultured in Dulbecco's modified Eagle's medium (D-MEM medium) containing 10% fetal bovine serum at 37° C. for 2 days. Thereafter, the following test for inhibition of uric acid transport was performed.
After the medium was removed by aspiration from each well, the cells were replaced with a solution obtained by substituting NaCl in Hanks' Balanced Salt Solution (HBSS) with Na gluconate (hereinafter, HBSS/Na-gluconate), and the cells were preincubated at 37° C. for about 10 minutes. After removing the HBSS/Na-gluconate by aspiration, a ^14C-uric acid solution containing various concentrations of the Example compound listed in Table 4 and a radioactive ligand (^14C-labeled uric acid; final concentration 25 μM) was added, and an uptake reaction was carried out by incubating at 37° C. for 5 min. After the reaction, the ^14C-labeled uric acid was removed by aspiration and the cells were washed three times with ice-cooled HBSS. The HEK 293 cells expressing human URAT1 were lysed in a 0.2 mol/L aqueous NaOH solution (hereafter, the cell sample) and sampled from the well. The cell sample and a liquid scintillation cocktail, ULTIMA GOLD (produced by PerkinElmer, Inc.) were mixed, and the radioactivity was measured by a liquid scintillation counter (manufactured by Beckman Coulter, Inc.).
The uric acid transport rate of the Example compound at each concentration (% of control uptake) was calculated relative to the radioactivity (radioactivity in human URAT1 expressing HEK 293 cells without addition of the Example compound (DMSO addition)) showing URAT1-specific uric acid transport as 100%, and the concentration (IC50) of the Example compound at which the uric acid transport rate is inhibited by 50% was determined. In addition, the symbols (*, **, and ***) in the table represent the following inhibitory activity values: • IC50≦0.2 μM: *** • 0.2 μM<IC50≦2 μM: ** • 2 μM<IC50≦20 μM: *

IC50 | Compound
≤ 200 nM | Cc1nc(-c2cnccn2)n(Cc2cc(Cl)ccc2Cl)c1C(=O)O [Compound A1, 1-(2,5-dichlorobenzyl)-4-methyl-2-(pyrazin-2-yl)-1H-imidazole-5-carboxylic acid]
≤ 200 nM | Cc1cncc(-c2nc(C)c(C(=O)O)n2Cc2cc(Cl)ccc2Cl)n1 [Compound A2, 1-(2,5-dichlorobenzyl)-4-methyl-2-(6-methylpyrazin-2-yl)-1H-imidazole-5-carboxylic acid]
≤ 200 nM | CCc1cncc(-c2nc(C)c(C(=O)O)n2Cc2cc(Cl)ccc2Cl)n1 [Compound A3, 1-(2,5-dichlorobenzyl)-2-(6-ethylpyrazin-2-yl)-4-methyl-1H-imidazole-5-carboxylic acid]
≤ 200 nM | Cc1nc(-c2cncc(-c3ccccc3)n2)n(Cc2cc(Cl)ccc2Cl)c1C(=O)O [Compound A4, 1-(2,5-dichlorobenzyl)-4-methyl-2-(6-phenylpyrazin-2-yl)-1H-imidazole-5-carboxylic acid]
≤ 200 nM | COc1cncc(-c2nc(C)c(C(=O)O)n2Cc2cc(Cl)ccc2Cl)n1 [Compound A5, 1-(2,5-dichlorobenzyl)-2-(6-methoxypyrazin-2-yl)-4-methyl-1H-imidazole-5-carboxylic acid]
≤ 200 nM | Cc1nc(-c2cncc(Oc3ccccc3)n2)n(Cc2cc(Cl)ccc2Cl)c1C(=O)O [Compound A6, 1-(2,5-dichlorobenzyl)-4-methyl-2-(6-phenoxypyrazin-2-yl)-1H-imidazole-5-carboxylic acid]
≤ 200 nM | CCOc1cncc(-c2nc(C)c(C(=O)O)n2Cc2cc(Cl)ccc2Cl)n1 [Compound A7, 1-(2,5-dichlorobenzyl)-2-(6-ethoxypyrazin-2-yl)-4-methyl-1H-imidazole-5-carboxylic acid]
≤ 200 nM | Cc1nc(-c2cncc(C#N)n2)n(Cc2cc(Cl)ccc2Cl)c1C(=O)O [Compound A8, 2-(6-cyanopyrazin-2-yl)-1-(2,5-dichlorobenzyl)-4-methyl-1H-imidazole-5-carboxylic acid]
≤ 200 nM | Cc1nc(-c2cncc(C(C)C)n2)n(Cc2cc(Cl)ccc2Cl)c1C(=O)O [Compound A9, 1-(2,5-dichlorobenzyl)-2-(6-isopropylpyrazin-2-yl)-4-methyl-1H-imidazole-5-carboxylic acid]
≤ 200 nM | Cc1nc(-c2cncc(C3CC3)n2)n(Cc2cc(Cl)ccc2Cl)c1C(=O)O [Compound A10, 2-(6-cyclopropylpyrazin-2-yl)-1-(2,5-dichlorobenzyl)-4-methyl-1H-imidazole-5-carboxylic acid]
≤ 200 nM | Cc1nc(-c2cnccn2)n(Cc2cc(Cl)sc2Cl)c1C(=O)O [Compound A11, 1-((2,5-dichlorothiophene-3-yl)methyl)-4-methyl-2-(pyrazin-2-yl)-1H-imidazole-5-carboxylic acid]
≤ 200 nM | Cc1cncc(-c2nc(C)c(C(=O)O)n2Cc2cc(Cl)sc2Cl)n1 [Compound A12, 1-((2,5-dichlorothiophene-3-yl)methyl)-4-methyl-2-(6-methylpyrazin-2-yl)-1H-imidazole-5-carboxylic acid]
200 to 2000 nM | COc1cccc(F)c1Oc1cncc(-c2nc(C)c(C(=O)O)n2Cc2cc(Cl)ccc2Cl)n1 [Compound A13]
≤ 200 nM | COc1cccc(F)c1Oc1cncc(-c2nc(C)c(C(=O)O)n2Cc2ccccc2)n1 [Compound A14, 1-benzyl-2-(6-(2-fluoro-6-methoxyphenoxy)pyrazin-2-yl)-4-methyl-1H-imidazole-5-carboxylic acid]
≤ 200 nM | O=C(O)c1ccc(-c2cnccn2)n1Cc1cc(Cl)ccc1Cl [Compound A15, 1-(2,5-dichlorobenzyl)-2-(pyrazin-2-yl)-1H-pyrrole-5-carboxylic acid]
